Target: FPR2 (Homo sapiens (Human), UniProt P25090)
Assay: FLIPR Ca+2 response, HEK-Gα16 cells stably expressing the human FPR2 receptor (Table 4)
Assay type: cell-based
Details: for FPR2 (efficacy): efficacy in parentheses
Description: FLIPR: HEK-Gα16 cells stably expressing the human FPR2 receptor was utilized. Cells were plated into 384-well poly-D-lysine coated plates at a density of 18,000 cells per well one day prior to use. The growth media was DMEM medium supplemented with 10% fetal bovine serum (FBS), 1% antibiotic-antimycotic, 50 μg/ml hygromycin, and 400 μg/ml geneticin. On the day of the experiment, the cells were washed twice with Hank's Balanced Salt Solution supplemented with 20 mM HEPES (HBSS/hepes buffer). The cells were then dye loaded with 2 μM Fluo-4 diluted in the HBSS/Hepes buffer and incubated at 37° C. for 40 minutes. Extracellular dye was removed by washing the cell plates four times prior to placing the plates in the FLIPR (Fluorometric Imaging Plate Reader, Molecular Devices). Ligands were diluted in HBSS/Hepes buffer and prepared in 384-well microplates. Data for Ca^+2 responses were obtained in relative fluorescence units.

Chain of FPR2 (P25090 whole entry): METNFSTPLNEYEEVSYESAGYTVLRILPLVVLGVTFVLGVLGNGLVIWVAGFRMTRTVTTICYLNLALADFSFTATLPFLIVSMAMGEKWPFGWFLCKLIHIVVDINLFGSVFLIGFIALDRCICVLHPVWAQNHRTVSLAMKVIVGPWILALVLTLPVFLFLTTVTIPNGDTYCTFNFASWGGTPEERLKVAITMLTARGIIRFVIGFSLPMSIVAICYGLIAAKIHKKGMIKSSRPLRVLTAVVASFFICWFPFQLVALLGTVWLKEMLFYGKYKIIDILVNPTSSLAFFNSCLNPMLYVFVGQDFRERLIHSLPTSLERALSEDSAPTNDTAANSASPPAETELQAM

| SMILES | EC50 [nM] | FPR2 (efficacy) |
| --- | --- | --- |
| CCC1(C(C)C)NC(=O)N(NC(=O)Nc2ccc(Br)cc2F)C1=O (stereo not drawn) [Compound 61, 1-(4-bromo-2-fluorophenyl)-3-[4-2,5-dioxo-4-(propan-2-yl)imidazolidin-1-yl]urea] | 9.2 | nM (0.97) |
| O=C(Nc1ccc(Br)cc1)[C@@H]1C2CCC([C@@H]1C(=O)O)C21CC1 (stereo partly drawn) [Compound 44, (+) (2S,3R)-3-[(4-bromophenyl)carbamoyl]spiro[bicyclo[2.2.1]heptane-7,1′-cyclopropane]-2-carboxylic acid] |  | nM (0.98) |
| CCOP(=O)(O)CNC(=O)[C@H](CC(C)C)NC(=O)Nc1ccc(C(F)(F)F)cc1 [Compound 135, ethyl hydrogen ({[(2S)-4-methyl-2-({[4-(trifluoromethyl)phenyl]carbamoyl}amino)pentanoyl]amino}methyl)phosphonate] | 1.9 | nM (0.91) |
| CS(=O)(=O)c1ccc(NC(=O)Nc2ccc3c(c2)C(=O)N(CCc2c[nH]cn2)C(c2ccc(Cl)cn2)C3)cc1 (stereo not drawn) [Compound 33, 1-{3-(5-chloropyridin-2-yl)-2-[2-(1H-imidazol-4-yl)ethyl]-1-oxo-1,2,3,4-tetrahydroisoquinolin-7-yl}-3-[4-(methylsulfonyl)phenyl]urea] |  | nM (0.99) |
| CC1(CCc2ccccc2F)NC(=O)N(NC(=O)Nc2ccc(Br)cc2)C1=O (stereo not drawn) [Compound 80, 1-(4-bromophenyl)-3-{4-[2-(2-fluorophenyl)ethyl]-4-methyl-2,5-dioxoimidazolidin-1-yl}urea] | 14.3 | nM (99) |
| CC[C@H](C)[C@H](NC(=O)Nc1ccc(Br)cc1F)C(=O)NCC(N)=O [Compound 62, (2S,3S)-N-(2-amino-2-oxoethyl)-2-{[(4-bromo-2-fluorophenyl)carbamoyl]amino}-3-methylpentanamide] | 10.3 | nM (1.0) |
| C[S+]([O-])c1ccc(NC(=O)Nc2ccc3c(c2)C(=O)N(CCCNC(=O)OC(C)(C)C)[C@@H](c2ccc(C#N)cc2)C3)cc1 (stereo partly drawn) [Compound 40, (+) tert-butyl {3-[(3R)-3-(4-cyanophenyl)-7-({[4-(methylsulfinyl)phenyl]carbamoyl}amino)-1-oxo-3,4-dihydroisoquinolin-2(1H)-yl]propyl}carbamate] | 103 | nM (0.91) |
| CCOP(=O)(CNC(=O)[C@H](Cc1ccccc1)NC(=O)Nc1ccc(Br)cc1)OCC [Compound 118, diethyl ({[(2S)-2-{[(4-bromophenyl)carbamoyl]amino}-3-phenylpropanoyl]amino}methyl)phosphonate] | 16.1 | nM (0.93) |
| CSc1ccc(NC(=O)C2C(C(N)=O)C3CCC2C3(C)C)cc1 (stereo not drawn) [Compound 37, 7,7-dimethyl-N-[4-(methylsulfanyl)phenyl]bicyclo[2.2.1]heptane-2,3-dicarboxamide] | 17 | nM (0.85) |
| CSc1ccc(NC(=O)Nc2ccc3c(c2)C(=O)N(CCCN)C(C)C3)cc1 (stereo not drawn) [Compound 42, 1-[2-(3-aminopropyl)-3-methyl-1-oxo-1,2,3,4-tetrahydroisoquinolin-7-yl]-3-[4-(methylsulfanyl)phenyl]urea] |  | nM (1.00) |
| O=C(Nc1ccc(Br)cc1)NN1C(=O)NC2(CCCCC2)C1=O [Compound 52, 1-(4-bromophenyl)-3-(2,4-dioxo-1,3-diazaspiro[4.5]dec-3-yl)urea] | 15.1 | nM (1.0) |
| CNC(=O)C1C(C(=O)Nc2ccc(Br)cc2)C2CCC1C21CC1 (stereo not drawn) [Compound 46, N-(4-bromophenyl)-N′-methylspiro[bicyclo[2.2.1]heptane-7,1′-cyclopropane]-2,3-dicarboxamide] | 8.5 | nM (1.0) |
| CC1(CCc2ccccc2)NC(=O)N(NC(=O)Nc2ccc(Br)cc2)C1=O (single isomer, unassigned; (+)) [Compound 57] |  | nM (0.93) |

The next lines start with the values.

| EC50 [nM] | FPR2 (efficacy) | SMILES |
| --- | --- | --- |
| 2.5 | nM (0.92) | CC(C)C[C@H](NC(=O)Nc1ccc(C(F)(F)F)cc1)C(=O)NC(C)(C)C(=O)O [Compound 139, 2-methyl-2-{[(2S)-4-methyl-2-({[4-(trifluoromethyl)phenyl]carbamoyl}amino)pentanoyl]amino} propanoic acid] |
|  | nM (0.99) | CC(=O)CNC(=O)[C@H](CC(C)C)NC(=O)Nc1ccc(Br)cc1F [Compound 85, (2S)-2-{[(4-bromo-2-fluorophenyl)carbamoyl]amino}-4-methyl-N-(2-oxopropyl)pentanamide] |
| 7.3 | nM (0.99) | CCC[C@H](NC(=O)[C@H](CC(C)C)NC(=O)Nc1ccc(Br)cc1)C(N)=O [Compound 102, (2S)-N-[(2S)-1-amino-1-oxopentan-2-yl]-2-{[(4-bromophenyl)carbamoyl]amino}-4-methylpentanamide] |
|  | (0.90) | CCC1(C(C)C)NC(=O)N(NC(=O)Nc2ccc(Br)cc2)C1=O (stereo not drawn) [Compound 4, 1-(4-bromophenyl)-3-[4-ethyl-2,5-dioxo-4-(propan-2-yl)imidazolidin-1-yl]urea] |
| 13.5 | nM (0.76) | CC(C)C[C@H](NC(=O)Nc1ccc(Br)cc1)C(=O)NCCO [Compound 75, (2S)-2-{[(4-bromophenyl)carbamoyl]amino}-N-(2-hydroxyethyl)-4-methylpentanamide] |
|  | nM (0.95) | CCC[C@H](NC(=O)[C@H](CC(C)C)NC(=O)Nc1ccc(Br)cc1)C(=O)O [Compound 101, (2S)-2-{[(2S)-2-{[(4-bromophenyl)carbamoyl]amino}-4-methylpentanoyl]amino} pentanoic acid] |
| 19.1 | nM (0.99) | CC(C)CC(C)(NC(=O)Nc1ccc(Br)cc1)C(=O)NCC(=O)O (stereo not drawn) [Compound 111, [(2-{[(4-bromophenyl)carbamoyl]amino}-2,4-dimethylpentanoyl)amino] acetic acid] |
|  | nM (1.0) | CC(C)C[C@H](NC(=O)Nc1ccc(Br)cc1)C(=O)N[C@H](C)CO [Compound 96, (2S)-2-{[(4-bromophenyl)carbamoyl]amino}-N-[(2R)-1-hydroxypropan-2-yl]-4-methylpentanamide] |
| 3.9 | nM (0.99) | CC(C)C1(CC(=O)NCCC(=O)O)NC(=O)N(NC(=O)Nc2ccc(Br)cc2)C1=O (stereo not drawn) [Compound 147, 3-({[1-{[(4-bromophenyl)carbamoyl]amino}-2,5-dioxo-4-(propan-2-yl)imidazolidin-4-yl]acetyl}amino)propanoic acid] |
| 1.7 | nM (0.97) | CC(C)C[C@H](NC(=O)Nc1ccc(Br)cc1)C(=O)N[C@H](C(=O)O)C(C)C [Compound 91, (2S)-2-{[(2S)-2-{[(4-bromophenyl)carbamoyl]amino}-4-methylpentanoyl]amino}-3-methylbutanoic acid] |
| 3.8 | nM (1.0) | CC(C)C1(C(C)C)NC(=O)N(NC(=O)Nc2ccc(Br)cc2)C1=O [Compound 64, 1-(4-bromophenyl)-3-[2,5-dioxo-4,4-di(propan-2-yl)imidazolidin-1-yl]urea] |
| 5.8 | nM (1.0) | CC(C)C[C@H](NC(=O)Nc1ccc(Br)cc1)C(=O)N[C@H](C(N)=O)C(C)C [Compound 92, (2S)-N-[(2S)-1-amino-3-methyl-1-oxobutan-2-yl]-2-{[(4-bromophenyl)carbamoyl]amino}-4-methylpentanamide] |

Reference: patent US10208071B2, “Use of agonists of formyl peptide receptor 2 for treating ocular inflammatory diseases” (Allergan, Inc., priority 2013, dated 2019)
